Test results published in the NIST ThermoML archive (doi:10.1016/j.fluid.2018.10.024).
± gives the expanded uncertainty stated by the source.

Assay: xn = mol fraction of the nth substance listed
Conditions: 101 kPa, Liquid; for viscosity: Capillary tube (Ostwald / Ubbelohde) method; for mass density: Vibrating tube method

`ClC(Cl)Cl` [trichloromethane] + CO showed a viscosity (298.15 K, x2 = 0) of 0.5916 ± 0.0044 mPa·s, a viscosity (298.15 K, x2 = 0.0999) of 0.6213 ± 0.0045 mPa·s and a viscosity (298.15 K, x2 = 0.2012) of 0.6437 ± 0.0046 mPa·s. It also gave a viscosity (298.15 K, x2 = 0.3015) of 0.6585 ± 0.0046 mPa·s, a viscosity (298.15 K, x2 = 0.3991) of 0.6642 ± 0.0046 mPa·s and a viscosity (298.15 K, x2 = 0.502) of 0.6635 ± 0.0045 mPa·s. It also gave a viscosity (298.15 K, x2 = 0.5998) of 0.6552 ± 0.0044 mPa·s, a viscosity (298.15 K, x2 = 0.7012) of 0.6385 ± 0.0043 mPa·s and a viscosity (298.15 K, x2 = 0.7998) of 0.6182 ± 0.0042 mPa·s. The viscosity (298.15 K, x2 = 0.9001) was 0.5812 ± 0.0039 mPa·s, the mass density (298.15 K, x2 = 0) was 1478.75 ± 0.37 kg/m3 and the mass density (298.15 K, x2 = 0.0999) was 1443.84 ± 0.34 kg/m3. It also gave a mass density (298.15 K, x2 = 0.2012) of 1403.84 ± 0.3 kg/m3, a mass density (298.15 K, x2 = 0.3015) of 1358.87 ± 0.26 kg/m3 and a mass density (298.15 K, x2 = 0.3991) of 1309.46 ± 0.23 kg/m3. It also gave a mass density (298.15 K, x2 = 0.502) of 1250.29 ± 0.21 kg/m3, a mass density (298.15 K, x2 = 0.5998) of 1186.04 ± 0.19 kg/m3 and a mass density (298.15 K, x2 = 0.7012) of 1108.93 ± 0.19 kg/m3. The mass density (298.15 K, x2 = 0.7998) was 1020.91 ± 0.21 kg/m3, the mass density (298.15 K, x2 = 0.9001) was 914.54 ± 0.25 kg/m3 and the viscosity (303.15 K, x2 = 0) was 0.558 ± 0.0041 mPa·s. For the same compound, the viscosity (303.15 K, x2 = 0.0999) was 0.5797 ± 0.0042 mPa·s, the viscosity (303.15 K, x2 = 0.2012) was 0.5937 ± 0.0043 mPa·s and the viscosity (303.15 K, x2 = 0.3015) was 0.6053 ± 0.0043 mPa·s. It also gave a viscosity (303.15 K, x2 = 0.3991) of 0.6038 ± 0.0042 mPa·s, a viscosity (303.15 K, x2 = 0.502) of 0.6028 ± 0.0042 mPa·s and a viscosity (303.15 K, x2 = 0.5998) of 0.5919 ± 0.0041 mPa·s. For the same compound, the viscosity (303.15 K, x2 = 0.7012) was 0.5796 ± 0.004 mPa·s, the viscosity (303.15 K, x2 = 0.7998) was 0.5571 ± 0.0038 mPa·s and the viscosity (303.15 K, x2 = 0.9001) was 0.533 ± 0.0037 mPa·s. For the same compound, the mass density (303.15 K, x2 = 0) was 1469.16 ± 0.37 kg/m3, the mass density (303.15 K, x2 = 0.0999) was 1434 ± 0.33 kg/m3 and the mass density (303.15 K, x2 = 0.2012) was 1394.48 ± 0.29 kg/m3. For the same compound, the mass density (303.15 K, x2 = 0.3015) was 1350.17 ± 0.26 kg/m3, the mass density (303.15 K, x2 = 0.3991) was 1301.28 ± 0.23 kg/m3 and the mass density (303.15 K, x2 = 0.502) was 1242.63 ± 0.21 kg/m3. The mass density (303.15 K, x2 = 0.5998) was 1178.79 ± 0.19 kg/m3, the mass density (303.15 K, x2 = 0.7012) was 1102.19 ± 0.19 kg/m3 and the mass density (303.15 K, x2 = 0.7998) was 1014.72 ± 0.21 kg/m3. For the same compound, the mass density (303.15 K, x2 = 0.9001) was 909 ± 0.25 kg/m3, the viscosity (308.15 K, x2 = 0) was 0.5333 ± 0.004 mPa·s and the viscosity (308.15 K, x2 = 0.0999) was 0.5525 ± 0.0041 mPa·s. The viscosity (308.15 K, x2 = 0.2012) was 0.5656 ± 0.0041 mPa·s, the viscosity (308.15 K, x2 = 0.3015) was 0.5743 ± 0.0041 mPa·s and the viscosity (308.15 K, x2 = 0.3991) was 0.5766 ± 0.0041 mPa·s. It also gave a viscosity (308.15 K, x2 = 0.502) of 0.5716 ± 0.004 mPa·s, a viscosity (308.15 K, x2 = 0.5998) of 0.5627 ± 0.0039 mPa·s and a viscosity (308.15 K, x2 = 0.7012) of 0.5487 ± 0.0038 mPa·s. It also gave a viscosity (308.15 K, x2 = 0.7998) of 0.5267 ± 0.0037 mPa·s, a viscosity (308.15 K, x2 = 0.9001) of 0.5044 ± 0.0035 mPa·s and a mass density (308.15 K, x2 = 0) of 1460.01 ± 0.36 kg/m3. It also gave a mass density (308.15 K, x2 = 0.0999) of 1424.97 ± 0.33 kg/m3, a mass density (308.15 K, x2 = 0.2012) of 1385.67 ± 0.29 kg/m3 and a mass density (308.15 K, x2 = 0.3015) of 1341.86 ± 0.26 kg/m3. The mass density (308.15 K, x2 = 0.3991) was 1293.54 ± 0.23 kg/m3, the mass density (308.15 K, x2 = 0.502) was 1235.37 ± 0.2 kg/m3 and the mass density (308.15 K, x2 = 0.5998) was 1171.85 ± 0.19 kg/m3. It also gave a mass density (308.15 K, x2 = 0.7012) of 1095.59 ± 0.19 kg/m3, a mass density (308.15 K, x2 = 0.7998) of 1008.7 ± 0.2 kg/m3 and a mass density (308.15 K, x2 = 0.9001) of 903.73 ± 0.25 kg/m3. For the same compound, the viscosity (313.15 K, x2 = 0) was 0.5072 ± 0.0038 mPa·s, the viscosity (313.15 K, x2 = 0.0999) was 0.5241 ± 0.0039 mPa·s and the viscosity (313.15 K, x2 = 0.2012) was 0.5355 ± 0.0039 mPa·s. For the same compound, the viscosity (313.15 K, x2 = 0.3015) was 0.5429 ± 0.0039 mPa·s, the viscosity (313.15 K, x2 = 0.3991) was 0.5434 ± 0.0039 mPa·s and the viscosity (313.15 K, x2 = 0.502) was 0.5403 ± 0.0038 mPa·s. The viscosity (313.15 K, x2 = 0.5998) was 0.5264 ± 0.0037 mPa·s, the viscosity (313.15 K, x2 = 0.7012) was 0.5134 ± 0.0036 mPa·s and the viscosity (313.15 K, x2 = 0.7998) was 0.4924 ± 0.0035 mPa·s. It also gave a viscosity (313.15 K, x2 = 0.9001) of 0.4713 ± 0.0033 mPa·s, a mass density (313.15 K, x2 = 0) of 1450.39 ± 0.36 kg/m3 and a mass density (313.15 K, x2 = 0.0999) of 1415.61 ± 0.32 kg/m3. For the same compound, the mass density (313.15 K, x2 = 0.2012) was 1376.61 ± 0.29 kg/m3 and the mass density (313.15 K, x2 = 0.3015) was 1333.14 ± 0.25 kg/m3.
